# Like-named read-outs stand apart in the source and are kept apart here. *1 amine or outer side, *2 acyl side, *3 side chain or, on linkers, in order; H or OH if unused. Where a SMILES comes first, the peptide text is derived from it. Bridges are numbered along the chain shown (N, C = ends). [ ]: non-standard residue; d: D form. The star is where a group is joined. hPhe(3-Cl-4-CF3) = N[C@@H](CCc1ccc(C(F)(F)F)c(Cl)c1)C(=O)O; NPrPhe(4-CF3) = CCCN[C@@H](Cc1ccc(C(F)(F)F)cc1)C(=O)O; X41 = Cc1ccc(C[C@@H](C(=O)[*:2])N(CC2CCCCC2)[*:1])cc1; NMeGly(cPent) = CN[C@H](C(=O)O)C1CCCC1; Pro(4,4-F2) = O=C(O)[C@@H]1CC(F)(F)CN1; X44 = CC1(C)CN([*:1])[C@@H]1C(=O)[*:2]; NMeD = CN[C@@H](CC(=O)O)C(=O)O; NMeL = CN[C@@H](CC(C)C)C(=O)O; NMeNva = CCC[C@H](NC)C(=O)O; Morpholide = C1CN(*)CCO1; NMeA = CN[C@@H](C)C(=O)O; Ac5c = NC1(C(=O)O)CCCC1; Aze = O=C(O)[C@@H]1CCN1; Sar = CNCC(=O)O
# How the values were obtained:
# [1] = molecular target: GDP-bound KRAS wild-type protein (Homo sapiens, UniProt P01116); assay: Binding to KRAS by surface plasmon resonance (SPR), Single Cycle Kinetics; conditions: GDP-bound KRAS wild-type protein, read-out: KRAS KD
# Chain of GDP-bound KRAS wild-type protein (P01116 whole entry): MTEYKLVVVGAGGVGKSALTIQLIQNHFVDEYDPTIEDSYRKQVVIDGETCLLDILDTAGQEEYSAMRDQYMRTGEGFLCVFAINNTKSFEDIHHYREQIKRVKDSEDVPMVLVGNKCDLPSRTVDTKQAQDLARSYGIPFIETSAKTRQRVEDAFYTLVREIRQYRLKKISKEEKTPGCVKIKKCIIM
# [2] = molecular target: GDP-bound HRAS wild-type protein (Homo sapiens, UniProt P01112); assay: Binding to HRAS by surface plasmon resonance (SPR), Single Cycle Kinetics; conditions: for HRAS/KRAS (ratio of KD value for HRAS to KD value for KRAS): SPR, GDP-bound HRAS wild-type protein vs GDP-bound KRAS wild-type protein; for HRAS/KRAS (ratio of KD value with respect to GDP-bound HRAS wild-type protein to KD value with respect to KRAS): SPR KD ratio HRAS/KRAS, class symbols
# Chain of GDP-bound HRAS wild-type protein (P01112 whole entry): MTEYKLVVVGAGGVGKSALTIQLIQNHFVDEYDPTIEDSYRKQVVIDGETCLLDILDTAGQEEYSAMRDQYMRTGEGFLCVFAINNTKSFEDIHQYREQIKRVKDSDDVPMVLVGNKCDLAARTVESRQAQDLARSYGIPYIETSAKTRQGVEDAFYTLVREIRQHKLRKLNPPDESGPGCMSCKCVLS
# [3] = molecular target: GDP-bound NRAS wild-type protein (Homo sapiens, UniProt P01111); assay: Binding to NRAS by surface plasmon resonance (SPR), Single Cycle Kinetics; conditions: for NRAS/KRAS (ratio of KD value for NRAS to KD value for KRAS): SPR, GDP-bound NRAS wild-type protein vs GDP-bound KRAS wild-type protein; for NRAS/KRAS (ratio of KD value with respect to GDP-bound NRAS wild-type protein to KD value with respect to KRAS): SPR KD ratio NRAS/KRAS, class symbols
# Chain of GDP-bound NRAS wild-type protein (P01111 whole entry): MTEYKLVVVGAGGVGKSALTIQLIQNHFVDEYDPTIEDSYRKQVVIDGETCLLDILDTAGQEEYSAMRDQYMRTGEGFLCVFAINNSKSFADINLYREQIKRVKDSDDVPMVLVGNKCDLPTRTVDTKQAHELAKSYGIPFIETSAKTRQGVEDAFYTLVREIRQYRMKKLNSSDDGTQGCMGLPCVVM
# [4] = SPR Single Cycle Kinetics, 1:1 binding model
SMILES,"Kd [1, 4] [nM]","Kd ([1]; SPR, Single Cycle Kinetics) [nM]",HRAS/KRAS (ratio of KD value for HRAS to KD value for KRAS) [2],NRAS/KRAS (ratio of KD value for NRAS to KD value for KRAS) [3],HRAS/KRAS (ratio of KD value with respect to GDP-bound HRAS wild-type protein to KD value with respect to KRAS) [2],NRAS/KRAS (ratio of KD value with respect to GDP-bound NRAS wild-type protein to KD value with respect to KRAS) [3]
"CCC[C@H]1C(=O)N[C@@H]([C@@H](C)CC)C(=O)N(C)CC(=O)N(C)CC(=O)N(CCC)[C@@H](Cc2ccc(C(F)(F)F)cc2)C(=O)N(C)CC(=O)N[C@@H](CCc2ccc(C(F)(F)F)c(Cl)c2)C(=O)N2CC(F)(F)C[C@H]2C(=O)NC2(CCCC2)C(=O)N(C)[C@@H](C2CCCC2)C(=O)N(C)[C@H](C(=O)N2CCOCC2)CC(=O)N1C [PP0201] ([NMeNva]I[Sar][Sar][NPrPhe(4-CF3)][Sar][hPhe(3-Cl-4-CF3)][Pro(4,4-F2)][Ac5c][NMeGly(cPent)][NMeD]-Morpholide; lactam N-11)",0.06,,C (A compound having a KD ratio of 0.1 or more and less than 3 is denoted as C),B (a compound having 3 or more and less than 10 is denoted as B),,
CC[C@H](C)[C@@H]1NC(=O)[C@H](CC(C)C)N(C)C(=O)C[C@@H](C(=O)N2CCOCC2)N(C)C(=O)[C@H](C2CCCC2)N(C)C(=O)C2(CCCC2)NC(=O)[C@@H]2CCCN2C(=O)[C@H](CCc2ccc(C(F)(F)F)c(Cl)c2)NC(=O)CN(C)C(=O)[C@H](Cc2ccc(C)cc2)N(CC2CCCCC2)C(=O)[C@@H]2CCN2C(=O)[C@H](C)N(C)C1=O [PP0085] ([NMeL]I[NMeA][Aze][X41][Sar][hPhe(3-Cl-4-CF3)]P[Ac5c][NMeGly(cPent)][NMeD]-Morpholide; lactam N-11),8.4,,C (A compound having a KD ratio of 0.1 or more and less than 3 is denoted as C),C (A compound having a KD ratio of 0.1 or more and less than 3 is denoted as C),,
CCC[C@H]1C(=O)N[C@@H]([C@@H](C)CC)C(=O)N(C)CC(=O)N(C)[C@H]2C/C=C\CCN(C2=O)[C@@H](Cc2ccc(C)cc2)C(=O)N(C)CC(=O)N[C@@H](CCc2ccc3sc(F)c(C)c3c2)C(=O)N2C[C@H](OCC)C[C@H]2C(=O)NC2(CC(C)(C)C2)C(=O)N(C)[C@@H](C2CCCC2)C(=O)N(C)[C@H](C(=O)N(C)C)CC(=O)N1C [PP2949],0.059,,,,A (a compound having 10 or more and less than 20 is denoted as A),A (a compound having 10 or more and less than 20 is denoted as A)
CCO[C@@H]1C[C@H]2C(=O)NC3(CCCC3)C(=O)N(C)[C@@H](C3CCCC3)C(=O)N(C)[C@H](C(=O)N(C)C)CC(=O)N(C)[C@@H](CC(C)C)C(=O)N[C@@H]([C@@H](C)CC)C(=O)N(C)CC(=O)N(C)[C@H]3C/C=C\CCN(C3=O)[C@@H](Cc3ccc(C)cc3)C(=O)N(C)CC(=O)N[C@@H](CCc3ccc(C(F)(F)F)c(Cl)c3)C(=O)N2C1 [PP2195],,0.096,A (a compound having 10 or more and less than 20 is denoted as A),A (a compound having 10 or more and less than 20 is denoted as A),,
CCCN1C(=O)CN(C)C(=O)[C@H]2N(CC2(C)C)C(=O)[C@H]([C@@H](C)CC)NC(=O)[C@H](CC(C)C)N(C)C(=O)C[C@@H](C(=O)N2CCOCC2)N(C)C(=O)[C@H](C2CCCC2)N(C)C(=O)C2(CCCC2)NC(=O)[C@@H]2CCCN2C(=O)[C@H](CCc2ccc(C(F)(F)F)c(Cl)c2)NC(=O)CN(C)C(=O)[C@@H]1Cc1ccc(C(F)(F)F)cc1 [PP0256] ([NMeL]I[X44][Sar][NPrPhe(4-CF3)][Sar][hPhe(3-Cl-4-CF3)]P[Ac5c][NMeGly(cPent)][NMeD]-Morpholide; lactam N-11),0.99,,C (A compound having a KD ratio of 0.1 or more and less than 3 is denoted as C),B (a compound having 3 or more and less than 10 is denoted as B),,

# More lines, main results first:
"Kd [1, 4] [nM]","Kd ([1]; SPR, Single Cycle Kinetics) [nM]",SMILES,HRAS/KRAS (ratio of KD value for HRAS to KD value for KRAS) [2],NRAS/KRAS (ratio of KD value for NRAS to KD value for KRAS) [3],HRAS/KRAS (ratio of KD value with respect to GDP-bound HRAS wild-type protein to KD value with respect to KRAS) [2],NRAS/KRAS (ratio of KD value with respect to GDP-bound NRAS wild-type protein to KD value with respect to KRAS) [3]
,0.18,C#CC[C@H]1C(=O)N[C@@H]([C@@H](C)CC)C(=O)N(C)CC(=O)N(C)[C@H]2C/C=C\CCN(C2=O)[C@@H](Cc2ccc(C(F)(F)F)cc2)C(=O)N(C)CC(=O)N[C@@H](CCc2ccc(C(F)(F)F)c(OC)c2)C(=O)N2C[C@@H](C)C[C@H]2C(=O)NC2(CC(C)(C)C2)C(=O)N(C)[C@@H](C2CCCC2)C(=O)N(C)[C@H](C(=O)N(C)CC)CC(=O)N1C [PP2055],B (a compound having 3 or more and less than 10 is denoted as B),A (a compound having 10 or more and less than 20 is denoted as A),,
0.12,,CCCC[C@H]1C(=O)N[C@@H]([C@@H](C)CC)C(=O)N(C)CC(=O)N(C)[C@H]2C/C=C\CCN(C2=O)[C@@H](Cc2ccc(C(F)(F)F)cc2)C(=O)N(C)CC(=O)N[C@@H](CCc2cc(F)c(C(F)(F)F)c(F)c2)C(=O)N2C[C@H](OCC)C[C@H]2C(=O)NC2(CC(C)(C)C2)C(=O)N(C)[C@@H](C2CCCC2)C(=O)N(C)[C@H](C(=O)N(C)CC)CC(=O)N1C [PP2806],,,A (a compound having 10 or more and less than 20 is denoted as A),A (a compound having 10 or more and less than 20 is denoted as A)

# Reference: patent publication US20240158446A1, “CYCLIC COMPOUND HAVING SELECTIVE INHIBITORY ACTION ON KRAS OVER HRAS AND NRAS” (CHUGAI SEIYAKU KABUSHIKI KAISHA, priority 2021, published 2024)
